Test results: patent US20260265248A1, “NOVEL PD-L1 INHIBITORS” (AFFIRMA BIOTECH S. L., priority 2023, published 2026)

Target: T1, PD-1/PD-L1 (Homo sapiens, UniProt Q9NZQ7)
T1 construct: purchased CisBio
Test: PD1-PDL1 HTRF assay
Settings: PD-1/PD-L1 homogenous time-resolved fluorescence (HTRF) binding assay; Tag1-PDL1 5 nM, Tag2-PD1 50 nM
From the text: The CisBio HTRF assay kit, purchased from CisBio only, was employed to determine the IC50 values of compounds. The PD1-PDL1 HTRF assay measures the interactions between the two proteins, PD1 and PDL1. The interaction is detected by using anti-Tag1 labeled with Europium (HTRF donor) which binds to PDL1 and anti-Tag2 labeled with XL665 (HTRF acceptor) which binds to PD1. When the two antibodies are in proximity, the excitation of the donor fluorophore results in FRET emission from the acceptor fluorophore. The presence of inhibitors for such an interaction result in reduction of HTRF signal.
The assay was conducted in 96-well white assay plates. All the reagents, including Tag1-PDL1, Tag2-PD1, Anti-Tag1-PDL1, Anti-Tag2-PD1 were thawed and diluted with PPI Europium Detection buffer to achieve the desired concentration as per the manufacturer's protocol. A 1000 μM stock solution of test inhibitors was prepared in DMSO. The stock solution was diluted in DMSO to prepare 8 concentrations (1000-0.001 μM). These stock solutions were further diluted in PPI Europium detection buffer to prepare 8 working stock solutions (100-0.0001 μM). To the 96-well plate, 2 μL of the test inhibitor working stock solutions were added followed by 4 μL of Tag1-PDL1 (5 nM) and 4 μL of Tag2-PD1 (50 nM). The plate was incubated at room temperature for 15 min. Subsequently, 10 μL of pre-mixed Anti-Tag1-PDL1 and Anti-Tag2-PD1 solution was added. The plate was sealed and incubated at room temperature for 1 h. The HTRF signal was read on Perkin Elmer Envision plate reader using excitation wavelength of 320 nm, emission wavelengths of 620 nm and 665 nm. Results were obtained by calculating the ratio of signal from acceptor at 665 nm to that of signal from donor at 620 nm multiplied by […]. The IC50 values were determined by the Hill equation using GraphPad Prism software.

T1 sequence (Q9NZQ7 19-238 limits assumed): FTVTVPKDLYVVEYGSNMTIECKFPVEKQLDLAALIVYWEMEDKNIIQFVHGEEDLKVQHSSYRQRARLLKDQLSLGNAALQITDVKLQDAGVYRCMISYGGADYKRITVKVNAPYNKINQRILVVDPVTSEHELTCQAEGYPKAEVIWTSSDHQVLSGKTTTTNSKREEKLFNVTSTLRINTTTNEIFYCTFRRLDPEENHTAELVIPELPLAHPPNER

IC50 [nM] | SMILES
100 to 1000 | Cc1c(-c2ccccc2)cccc1-c1ccn2c(-c3ccc(CN4CCCCC4C(=O)O)cc3)cnc2c1 (racemic) [Example 1, 1-(4-(7-(2-methyl-[1,1′-biphenyl]-3-yl)imidazo[1,2-a]pyridin-3-yl)benzyl) piperidine-2-carboxylic acid]
100 to 1000 | Cc1c(-c2ccc3c(c2)OCCO3)cccc1-c1ccn2c(-c3ccc(CN4CCOCC4C(=O)O)cc3)cnc2c1 (racemic) [Example 33, 4-(4-(7-(3-(2,3-dihydrobenzo[b][1,4]dioxin-6-yl)-2-methylphenyl)imidazo[1,2-a]pyridin-3-yl)benzyl)morpholine-3-carboxylic acid]
100 to 1000 | Cc1c(-c2ccc3c(c2)OCCO3)cccc1-c1ccn2c(-c3ccc(CN4CCOCC4C(=O)O)cc3)cnc2c1 (single isomer, unassigned) [Example 34, 4-(4-(7-(3-(2,3-dihydrobenzo[b][1,4]dioxin-6-yl)-2-methylphenyl)imidazo[1,2-a]pyridin-3-yl)benzyl)morpholine-3-carboxylic acid]
100 to 1000 | Cc1c(-c2ccc3c(c2)OCCO3)cccc1-c1ccn2c(-c3ccc(CN4CCOCC4C(=O)O)cc3)cnc2c1 (single isomer, unassigned) [Example 35, 4-(4-(7-(3-(2,3-dihydrobenzo[b][1,4]dioxin-6-yl)-2-methylphenyl)imidazo[1,2-a]pyridin-3-yl)benzyl)morpholine-3-carboxylic acid]
10 to 100 | Cc1c(-c2ccccc2)cccc1-c1ccn2c(-c3ccc(CN4CCC[C@H]4C(=O)O)cc3)cnc2c1 [Example 2, (4-(7-(2-methyl-[1,1′-biphenyl]-3-yl)imidazo[1,2-a]pyridin-3-yl)benzyl)proline]
100 to 1000 | Cc1c(-c2ccccc2)cccc1-c1ccn2c(-c3ccc(CNC4(C(=O)O)COC4)cc3)cnc2c1 [Example 3, 3-((4-(7-(2-methyl-[1,1′-biphenyl]-3-yl)imidazo[1,2-a]pyridin-3-yl)benzyl)amino)oxetane-3-carboxylic acid]
100 to 1000 | Cc1c(-c2ccccc2)cccc1-c1ccn2c(-c3ccc(CN4C[C@H](O)C[C@H]4C(=O)O)cc3)cnc2c1 [Example 4, (2S,4R)-4-hydroxy-1-(4-(7-(2-methyl-[1,1′-biphenyl]-3-yl)imidazo[1,2-a]pyridin-3-yl)benzyl)pyrrolidine-2-carboxylic acid]
100 to 1000 | Cc1c(-c2ccccc2)cccc1-c1ccn2c(-c3ccc(CNC4(C(=O)O)CCC4)cc3)cnc2c1 [Example 5, 1-((4-(7-(2-methyl-[1,1′-biphenyl]-3-yl)imidazo[1,2-a]pyridin-3-yl)benzyl)amino)cyclobutane-1-carboxylic acid]
100 to 1000 | Cc1c(-c2ccccc2)cccc1-c1ccn2c(-c3ccc(CN4CCOCC4C(=O)O)cc3)cnc2c1 (centres unmarked) [Example 6, 4-(4-(7-(2-methyl-[1,1′-biphenyl]-3-yl)imidazo[1,2-a]pyridin-3-yl)benzyl)morpholine-3-carboxylic acid]
100 to 1000 | Cc1c(-c2ccccc2)cccc1-c1ccn2c(-c3ccc(CN4CC(C(=O)O)C4)cc3)cnc2c1 [Example 7, 1-(4-(7-(2-methyl-[1,1′-biphenyl]-3-yl)imidazo[1,2-a]pyridin-3-yl)benzyl)azetidine-3-carboxylic acid]
100 to 1000 | Cc1c(-c2ccccc2)cccc1-c1ccn2c(-c3ccc(CNCCCO)cc3)cnc2c1 [Example 8, 3-((4-(7-(2-methyl-[1,1′-biphenyl]-3-yl)imidazo[1,2-a]pyridin-3-yl)benzyl)amino)propan-1-ol]
100 to 1000 | Cc1c(-c2ccccc2)cccc1-c1ccn2c(-c3ccc(CN[C@H](C(=O)O)C(C)C)cc3)cnc2c1 [Example 9, (4-(7-(2-methyl-[1,1′-biphenyl]-3-yl)imidazo[1,2-a]pyridin-3-yl)benzyl)valine]
100 to 1000 | Cc1c(-c2ccccc2)cccc1-c1ccn2c(-c3ccc(CN4CCC[C@H]4C(=O)O)cc3)cnc2c1 [Example 10, (4-(7-(2-methyl-[1,1′-biphenyl]-3-yl)imidazo[1,2-a]pyridin-3-yl)benzyl)-L-proline]
100 to 1000 | Cc1c(-c2ccccc2)cccc1-c1ccn2c(-c3ccc(CN4CCC[C@@H]4C(=O)O)cc3)cnc2c1 [Example 11, (4-(7-(2-methyl-[1,1′-biphenyl]-3-yl)imidazo[1,2-a]pyridin-3-yl)benzyl)-D-proline]
100 to 1000 | Cc1c(-c2ccccc2)cccc1-c1ccn2c(-c3ccc(CNCC(=O)O)cc3)cnc2c1 [Example 12, (4-(7-(2-methyl-[1,1′-biphenyl]-3-yl)imidazo[1,2-a]pyridin-3-yl)benzyl)glycine]
100 to 1000 | Cc1c(-c2ccccc2)cccc1-c1ccn2c(-c3ccc(CN4CC[C@H]4C(=O)O)cc3)cnc2c1 [Example 13, (S)-1-(4-(7-(2-methyl-[1,1′-biphenyl]-3-yl)imidazo[1,2-a]pyridin-3-yl)benzyl)azetidine-2-carboxylic acid]
100 to 1000 | Cc1c(-c2ccccc2)cccc1-c1ccn2c(-c3ccc(CNCC(O)CC(=O)O)cc3)cnc2c1 (centres unmarked) [Example 14, 3-hydroxy-4-((4-(7-(2-methyl-[1,1′-biphenyl]-3-yl)imidazo[1,2-a]pyridin-3-yl)benzyl)amino) butanoic acid]
100 to 1000 | Cc1c(-c2ccccc2)cccc1-c1ccn2c(-c3ccc(CNCCCO)cc3)nnc2c1 [Example 15, 3-((4-(7-(2-methyl-[1,1′-biphenyl]-3-yl)-[1,2,4]triazolo[4,3-a]pyridin-3-yl)benzyl)amino)propan-1-ol]
100 to 1000 | Cc1c(-c2ccccc2)cccc1-c1ccn2c(-c3ccc(CNC(C)(C)CO)cc3)cnc2c1 [Example 17, 2-methyl-2-((4-(7-(2-methyl-[1,1′-biphenyl]-3-yl)imidazo[1,2-a]pyridin-3-yl)benzyl)amino)propan-1-ol]
100 to 1000 | Cc1c(-c2ccccc2)cccc1-c1ccn2c(-c3ccc(CNCCC(=O)O)cc3)cnc2c1 [Example 18, 3-((4-(7-(2-methyl-[1,1′-biphenyl]-3-yl)imidazo[1,2-a]pyridin-3-yl)benzyl)amino)propanoic acid]
100 to 1000 | Cc1c(-c2ccccc2)cccc1-c1ccn2c(-c3ccc(CNCCS(=O)(=O)O)cc3)cnc2c1 [Example 19, 2-((4-(7-(2-methyl-[1,1′-biphenyl]-3-yl)imidazo[1,2-a]pyridin-3-yl)benzyl)amino)ethane-1-sulfonic acid]
100 to 1000 | COc1cc(-c2cnc3cc(-c4cccc(-c5ccccc5)c4C)ccn23)cc(OC)c1CN1CCCC1C(=O)O (centres unmarked) [Example 20, 1-(2,6-dimethoxy-4-(7-(2-methyl-[1,1′-biphenyl]-3-yl)imidazo[1,2-ai]pyridin-3-yl)benzyl)piperidine-2-carboxylic acid]
100 to 1000 | COc1cc(-c2cnc3cc(-c4cccc(-c5ccccc5)c4C)ccn23)cc(OC)c1CN1CCC[C@H]1C(=O)O [Example 21, (2,6-dimethoxy-4-(7-(2-methyl-[1,1′-biphenyl]-3-yl)imidazo[1,2-a]pyridin-3-yl)benzyl)proline]
100 to 1000 | Cc1c(-c2ccccc2)cccc1-c1ccn2c(-c3ccc(CN4CCC[C@@H]4CO)cc3)cnc2c1 [Example 23, (R)-(1-(4-(7-(2-methyl-[1,1′-biphenyl]-3-yl)imidazo[1,2-a]pyridin-3-yl)benzyl)pyrrolidin-2-yl)methanol]
100 to 1000 | Cc1c(-c2ccccc2)cccc1-c1ccn2c(-c3ccc(CN4CCC[C@H]4CO)cc3)cnc2c1 [Example 24, (S)-(1-(4-(7-(2-methyl-[1,1′-biphenyl]-3-yl)imidazo[1,2-a]pyridin-3-yl)benzyl)pyrrolidin-2-yl)methanol]
100 to 1000 | Cc1c(-c2ccc3c(c2)OCCO3)cccc1-c1ccn2c(-c3ccc(CN4CC(C(=O)O)C4)cc3)cnc2c1 [Example 25, 1-(4-(7-(3-(2,3-dihydrobenzo[b][1,4]dioxin-6-yl)-2-methylphenyl)imidazo[1,2-a]pyridin-3-yl)benzyl)azetidine-3-carboxylic acid]
100 to 1000 | Cc1c(-c2ccc3c(c2)OCCO3)cccc1-c1ccn2c(-c3ccc(CN4CC[C@H]4C(=O)O)cc3)cnc2c1 [Example 26, (S)-1-(4-(7-(3-(2,3-dihydrobenzo[b][1,4]dioxin-6-yl)-2-methylphenyl)imidazo[1,2-a]pyridin-3-yl)benzyl)azetidine-2-carboxylic acid]
100 to 1000 | Cc1c(-c2ccc3c(c2)OCCO3)cccc1-c1ccn2c(-c3ccc(CN4CCC[C@@H]4C(=O)O)cc3)cnc2c1 [Example 27, (4-(7-(3-(2,3-dihydrobenzo[b][1,4]dioxin-6-yl)-2-methylphenyl)imidazo[1,2-a]pyridin-3-yl)benzyl)-D-proline]
100 to 1000 | Cc1c(-c2ccc3c(c2)OCCO3)cccc1-c1ccn2c(-c3ccc(CN4CCC[C@H]4C(=O)O)cc3)cnc2c1 [Example 28, (4-(7-(3-(2,3-dihydrobenzo[b][1,4]dioxin-6-yl)-2-methylphenyl)imidazo[1,2-a]pyridin-3-yl)benzyl)-L-proline]
